The values below come from ChEMBL document CHEMBL1201862, “PubChem BioAssay data set” (2004).

Among the test systems are A498; A549; CAKI-1; HCC 2998; HOP-92; HT-29; M14; MDA-MB-231; MDA-N; NCI-H23; NCI/ADR-RES; OVCAR-3; PC-3; RPMI-8226; SNB-19; T47D; TK-10; U-251; UACC-257; UO-31.
Holding throughout (test): inhibition of tumour cell growth, NCI panel, 48 h

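1) Cells in 96-well plates. 2) Compound, 48 h, 5 concentrations. 3) Linear interpolation between surrounding doses. 4) Unreached endpoint = highest concentration. GI50 marks 50% less growth.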 The source made the active and inactive calls. Rule as the data show it: active = GI50 up to about 1.1 µM and inactive = higher.

Regarding `CCC1NC(=O)C(NC(=O)c2ncccc2O)C(C)OC(=O)C(c2ccccc2)NC(=O)C2CC(=O)CCN2C(=O)C(Cc2ccccc2)N(C)C(=O)C2CCCN2C1=O` (stereo not given), the GI50 in the test with A498, with A549, in the test with CAKI-1, in the test on HCC 2998, in the test on HOP-92 and in the test with HT-29 was > 100 µM (inactive) in each case. Also, the GI50 with M14, with MDA-MB-231, in the test with MDA-N, in the test with NCI-H23, in the test on NCI/ADR-RES and with OVCAR-3 was > 100 µM (inactive) throughout. The GI50 in the test with PC-3, in the test with RPMI-8226, in the test with SNB-19, with T47D, in the test with TK-10 and in the test with U-251 was > 100 µM (inactive) throughout. Further, the GI50 in the test on UACC-257 and in the test with UO-31 was > 100 µM (inactive) in each case.

For the compound `CC1NC(=O)C2Cc3ccc(O)c(c3)Oc3ccc(cc3)C(O)C(C(=O)N2C)N(C)C(=O)C(C)NC(=O)C(Cc2ccc(O)cc2)N(C)C(=O)C(C)NC1=O` (stereo not given), the GI50 in the test with A498 is > 100 µM (inactive); in the test on A549, 41 µM (inactive); in the test on CAKI-1, > 100 µM (inactive); in the test on HCC 2998, 22.2 µM (inactive); in the test with HOP-92, 15.8 µM (inactive); in the test with HT-29, 19.2 µM (inactive). Also, the GI50 is 63.2 µM (inactive) with M14; 11.1 µM (inactive) in the test with MDA-MB-231; 13.1 µM (inactive) in the test on MDA-N; 29.2 µM (inactive) in the test with NCI-H23; > 100 µM (inactive) in the test with NCI/ADR-RES; 25.3 µM (inactive) in the test with OVCAR-3. The GI50 was 23.8 µM (inactive) with PC-3; 12 µM (inactive) in the test on RPMI-8226; 13.8 µM (inactive) in the test with SNB-19; 15.9 µM (inactive) with T47D; > 100 µM (inactive) in the test with TK-10; 9.48 µM (inactive) with U-251. Also, the GI50 in the test with UACC-257 was 13.6 µM (inactive); in the test on UO-31 it was > 100 µM (inactive).

For the compound `CSc1ccc(NC(=S)NN(C)C)cc1`, the GI50 in the test with A498, with A549, in the test on CAKI-1, in the test with HCC 2998, in the test on HOP-92 and in the test on HT-29 was > 10 µM (inactive) throughout. Further, the GI50 with M14, in the test with MDA-MB-231, in the test on MDA-N, in the test with NCI-H23, with NCI/ADR-RES and in the test with OVCAR-3 was > 10 µM (inactive) in each case. In addition, the GI50 in the test with PC-3, in the test with RPMI-8226, in the test with SNB-19, in the test with T47D, in the test on TK-10 and in the test on U-251 was > 10 µM (inactive) each time. For the same compound, the GI50 in the test on UACC-257 and with UO-31 was > 10 µM (inactive) in each case.

Take `COc1ccc(-c2cc(-c3ccccc3)nc(N)c2-c2ccc3ccccc3c2)cc1`: the GI50 in the test with A498 is 2.04 µM (inactive); with A549, 2.21 µM (inactive); in the test with CAKI-1 it was 3.46 µM (inactive); in the test with HCC 2998, 1.83 µM (inactive); in the test with HOP-92 it was 1.5 µM (inactive); in the test on HT-29 it was 1 µM (active). Moreover, the GI50 with M14 is 2.53 µM (inactive); in the test with MDA-MB-231 it was 1.6 µM (inactive); in the test with MDA-N, 1.6 µM (inactive); in the test on NCI-H23, 1.86 µM (inactive); in the test with NCI/ADR-RES it was 1.98 µM (inactive); in the test with OVCAR-3, 2.47 µM (inactive). In addition, the GI50 in the test with PC-3 was 2.22 µM (inactive); in the test with RPMI-8226, 2.13 µM (inactive); with SNB-19, 1.18 µM (inactive); in the test on T47D it was 1.69 µM (inactive); in the test with TK-10 it was 3.15 µM (inactive); with U-251 it was 1.95 µM (inactive). The values for the GI50 in the test with UACC-257 and in the test on UO-31 were 1.86 µM (inactive) and 1.99 µM (inactive), respectively.

Take `CC(=O)OCC1OC(N2C(C)=C(C(C)=O)C(c3ccco3)C(C#N)=C2S)C(OC(C)=O)C(OC(C)=O)C1OC(C)=O` (stereo not given): the GI50 in the test on A498, with A549, with CAKI-1, in the test with HCC 2998, with HOP-92 and in the test on HT-29 was > 100 µM (inactive) each time. Besides, the GI50 in the test on M14, in the test with MDA-MB-231, in the test with MDA-N, in the test with NCI-H23, with NCI/ADR-RES and in the test with OVCAR-3 was > 100 µM (inactive) throughout. Besides, the GI50 is > 100 µM (inactive) with PC-3; > 100 µM (inactive) in the test with RPMI-8226; > 100 µM (inactive) in the test with SNB-19; 78.7 µM (inactive) with T47D; > 100 µM (inactive) in the test with TK-10; > 100 µM (inactive) in the test with U-251. For the same compound, the GI50 was > 100 µM (inactive) in the test on UACC-257 and 81.1 µM (inactive) with UO-31.

`Cc1ccc(CC(Cc2ccc(C)cc2C(=O)O)C(=O)O)cc1` (stereo not given): the GI50 with A498, with A549, in the test with CAKI-1, in the test on HCC 2998, in the test with HOP-92 and in the test with HT-29 was > 100 µM (inactive) throughout. Besides, the GI50 in the test with M14, in the test with MDA-MB-231, in the test with MDA-N, with NCI-H23, in the test on NCI/ADR-RES and in the test with OVCAR-3 was > 100 µM (inactive) throughout. In addition, the GI50 in the test with PC-3, in the test with RPMI-8226, with SNB-19, with T47D, with TK-10 and with U-251 was > 100 µM (inactive) in each case. Also, the GI50 in the test with UACC-257 and in the test with UO-31 was > 100 µM (inactive) throughout.

Take `C\C(=N/N=C1/C(=C\N(C)C)C(=O)NC(=O)N1C)c1ccc(Cl)cc1`: the GI50 is > 100 µM (inactive) with A498; 87.7 µM (inactive) in the test on A549; 76.4 µM (inactive) in the test on CAKI-1; > 100 µM (inactive) in the test on HCC 2998; > 100 µM (inactive) in the test with HOP-92; > 100 µM (inactive) with HT-29. In addition, the GI50 with M14 is 43.2 µM (inactive); in the test on MDA-MB-231 it was > 100 µM (inactive); with MDA-N it was > 100 µM (inactive); in the test with NCI-H23 it was > 100 µM (inactive); in the test with NCI/ADR-RES, > 100 µM (inactive); with OVCAR-3, > 100 µM (inactive). Moreover, the GI50 in the test with PC-3 is 72.1 µM (inactive); in the test with RPMI-8226 it was 26.9 µM (inactive); in the test with SNB-19, > 100 µM (inactive); in the test with T47D, 82.4 µM (inactive); with TK-10, 57.3 µM (inactive); in the test with U-251, > 100 µM (inactive). The GI50 in the test with UACC-257 and in the test on UO-31 was > 100 µM (inactive) throughout.

With `C/C(=N\N)C(CN(C)C)C(c1ccccc1)c1c(O)c2ccccc2oc1=O` (stereo not given), the GI50 in the test with A498 is > 100 µM (inactive); with A549 it was > 100 µM (inactive); with CAKI-1, > 100 µM (inactive); in the test on HCC 2998, > 100 µM (inactive); in the test with HOP-92 it was 25.2 µM (inactive); with HT-29 it was > 100 µM (inactive). Also, the GI50 in the test with M14, in the test with MDA-MB-231, in the test with MDA-N, in the test with NCI-H23, in the test on NCI/ADR-RES and in the test on OVCAR-3 was > 100 µM (inactive) each time. The GI50 in the test with PC-3 was > 100 µM (inactive); in the test with RPMI-8226 it was 97.3 µM (inactive); with SNB-19, > 100 µM (inactive); in the test with T47D, > 10 µM (inactive); in the test on TK-10 it was > 100 µM (inactive); in the test on U-251, > 87.1 µM (inactive). Moreover, the GI50 with UACC-257 and with UO-31 was > 100 µM (inactive) throughout.

Consider `CCOP(=O)(OCC)/C(C#N)=C/c1ccnc2ccccc12`, for which the GI50 was 78.3 µM (inactive) in the test with A498; > 100 µM (inactive) in the test with A549; 24 µM (inactive) in the test with CAKI-1; > 100 µM (inactive) in the test on HCC 2998; 18.4 µM (inactive) with HOP-92; 19.7 µM (inactive) with HT-29. For the same compound, the GI50 in the test on M14 is 20.1 µM (inactive); in the test with MDA-MB-231 it was 24.9 µM (inactive); in the test on MDA-N it was 21.9 µM (inactive); in the test with NCI-H23 it was 24.3 µM (inactive); in the test with NCI/ADR-RES it was 20.5 µM (inactive); in the test on OVCAR-3, 20.3 µM (inactive). Moreover, the GI50 in the test on PC-3 is 17.6 µM (inactive); in the test on RPMI-8226, 44.7 µM (inactive); with SNB-19, 21.4 µM (inactive); in the test with T47D, 55 µM (inactive); in the test on TK-10, 47.1 µM (inactive); in the test with U-251, 51.8 µM (inactive). The values for the GI50 with UACC-257 and with UO-31 were 51.3 µM (inactive) and < 0.01 µM (active), respectively.

With `Cc1ccc2c(c1)nc1n2C(N)=Nc2ccccc2S1`, the GI50 is 49.1 µM (inactive) with A498; 25.4 µM (inactive) in the test with A549; > 100 µM (inactive) in the test with CAKI-1; 51.3 µM (inactive) in the test on HCC 2998; > 40.6 µM (inactive) in the test with HOP-92; 15.8 µM (inactive) in the test with HT-29. For the same compound, the GI50 in the test with M14 is 3.44 µM (inactive); with MDA-MB-231, > 21 µM (inactive); in the test with MDA-N, 5.78 µM (inactive); in the test with NCI-H23, 28.7 µM (inactive); with NCI/ADR-RES it was 43.4 µM (inactive); in the test with OVCAR-3 it was 43.3 µM (inactive). Besides, the GI50 was 75 µM (inactive) in the test on PC-3; 19.6 µM (inactive) in the test with RPMI-8226; 35.8 µM (inactive) in the test on SNB-19; 46.6 µM (inactive) with T47D; > 100 µM (inactive) in the test on TK-10; > 27.9 µM (inactive) in the test with U-251. In addition, the GI50 in the test on UACC-257 is > 67.5 µM (inactive); in the test with UO-31, 50.4 µM (inactive).
